Reference: BindingDB's records for doi:10.7270/Q2QC01XF (Nmmlsc, 2009)
pKi: −log10 of the molar value.

Target: Ras-related protein Rab-2A (Canis lupus familiaris, UniProt P61105)
Assay: Rab2 wildtype GTP-binding inhibitors, SAR follow-up, biochemical, additional analogs, bead-based flow cytometry, multiplex (AID 2046)

Chain of Ras-related protein Rab-2A (P61105 whole entry): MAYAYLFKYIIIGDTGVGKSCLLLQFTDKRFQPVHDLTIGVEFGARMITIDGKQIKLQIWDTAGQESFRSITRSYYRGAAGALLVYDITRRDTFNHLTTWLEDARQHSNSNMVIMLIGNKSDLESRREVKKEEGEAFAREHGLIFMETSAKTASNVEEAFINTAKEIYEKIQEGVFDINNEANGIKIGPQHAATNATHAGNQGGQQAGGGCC

| pKi | SMILES |
| --- | --- |
| 5.38 | O=C1N=c2c(Br)cccc2=C1c1[nH]c2ccccc2c1NO [7-bromanyl-3-[3-(oxidanylamino)-1H-indol-2-yl]indol-2-one] |
| 5.38 | O=C1N=c2ccc(Br)cc2=C1c1[nH]c2ccccc2c1NO [5-bromanyl-3-[3-(oxidanylamino)-1H-indol-2-yl]indol-2-one] |
